Source: patent publication US20200253917A1 (priority 2017, published 2020)

How the values were obtained:
hair cycle [1] = assay type: in vivo; details: mice shaved at day 50 (Telogen); for pigmentation in response to treatment: topical every other day for 2-3 weeks
Experimental: (§1) FIG. 1A: Mice were shaved at day 50 (Telogen) and topically treated with Phenformin (5 uM) every other day for 2-3 weeks. […] FIG. 1B: Quantification of changes to the hair cycle in treatment and control. Quantification performed across 13 vehicle and 9 Phenformin treated male mice. FIG. 1C: Changes to the thickness of the epidermis, dermis and hypodermis were assessed microscopically and quantified. […] Scale bars for D indicate 25 micrometers.
(§2) FIG. 3A: Mice were shaved at day 50 (Telogen) and topically treated with antimycin A or Rotenone every other day for 2-3 weeks. […] FIG. 3B: Quantification of changes to the hair cycle in treatment and control. Quantification was performed with 13 vehicle treated, 11 Rotenone treated, and 9 Antimycin A treated male animals. FIG. 3C: Changes to the thickness of the epidermis, dermis and hypodermis were assessed microscopically and quantified. FIG. 3D: Immunolocalization was performed to detect evidence of inflammation due to topical application of ETC inhibitors. Both vehicle and ETC inhibitor treated skin was immunostained for phosphor-EGFR ([…]), CD11b (marker of macrophages), and IL6 (Chemokine). Vehicle treated skin from a wounded animal with hyperplastic epidermis was used as a positive control for markers of inflammation. Scale bars indicate 50 micrometers.
To determine whether manipulation of ETC activity could affect HFSC activation, various inhibitors of ETC components were topically applied to mice during a resting phase of the hair cycle. The topical formulation was prepared by suspending the active ingredient in PLO Ultramax Gel (lecithin organogel). At postnatal day 50, the hair follicle is in telogen, a resting phase where the stem cells of the follicle are quiescent until the start of the next hair cycle at day 70-80. Rotenone, Phenformin, and Antimycin A are established inhibitors of […], respectively. Animals were shaved at postnatal day 47 and treated with the indicated compounds or vehicle on the shaved area every 48 hours for the indicated duration. […]

[2] = test system: hair follicle stem cells (HFSCs); assay type: in vivo, mice; details: topically treated skin, a week after treatment
lactate [3] = assay type: in vivo; details: aged mice, sorted HFSCs at the end of the hair cycle experiment
Source text: (§3) FIGS. 4A and 4B. Treatment with ETC inhibitors can accelerate the hair cycle in aged mice. FIG. 4A: Female mice were shaved at 17 months of age and then treated with vehicle or the indicated ETC inhibitor every other day for up to 30 days. Images taken over time indicate the ETC inhibition promotes a more complete re-growth of hair after shaving in aged mice. Quantification of phenotype emergence from two pairs of animals are presented on the right. Data shown are representative of three independent experiments with 10 mice each.
(§4) As mice age, the hair cycle is known to become protracted such that upon shaving, only portions of the backskin show regrowth of hair within a 1-2 months. Various batches of aged mice (at least 17 months) were treated for 30 days with ETC inhibitors to determine whether this metabolic manipulation could stimulate the hair cycle even in dormant follicles.

hair cycle [4] = assay type: in vivo; details: aged mice (at least 17 months), topical every other day for 30 days
Source text: as §3, §4

lactate [5] = assay type: in vivo, mice; details: topical treatment for 48 hours or 10 days
Experimental: FIG. 2A: Mice were treated topically with the indicated ETC inhibitor for 48 hours. Total epidermis was isolated, lysed and subjected to LDH activity assay. Relative LDH activity is presented as the rate of activity over 30 min in two different animals. FIG. 2B: Mice were treated topically with ETC inhibitor for 48 hours (TOP) or 10 days (BOTTOM). Total epidermis was isolated, and metabolites were extracted and subjected to metabolomics. Heatmap indicates relative levels of metabolites related to glycolysis and the TCA cycle.
To determine the effect on cellular metabolism of ETC inhibition by Rotenone, Phenformin and Antimycin A, two measures of metabolic pathways were performed. First, LDH activity was quantified on cells isolated from the epidermis treated with ETC inhibitors for 48 hours (FIG. 2A). Next, metabolomics was employed on sorted HFSCs with and without treatment for either 48 hours or 10 days.

hair follicles = assay type: in vivo; details: backskin of topically treated telogen mice
Experimental: as §1, §2
These findings were also in stark contrast to previous studies showing that transgenic abrogation of the ETC led to hair follicle degeneration.

Compound	pigmentation and hair growth in response to treatment (hair cycle [1]; topical Phenformin 5 uM every other day for 2-3 weeks, at 10 and 16 days)	HFSC activation (Sox9 and Ki-67 immunohistochemistry) [2]	lactate pool levels (metabolomics) (lactate [3])	hair regrowth across the backskin after shaving (hair cycle [4])	lactate levels and glycolytic intermediates (metabolomics) (lactate [5])	H and E staining / histological analysis of the hair cycle (hair follicles)	pigmentation in response to treatment (hair cycle [1])
[H]/N=C(/N)N/C(=N/[H])NCCc1ccccc1 [Phenformin]	new pigmentation and then hair growth	HFSCs became activated	increase in lactate pool levels	more complete hair regrowth across the entire backskin	increase in lactate levels as well as several other glycolytic intermediates	advancement of the hair cycle	–
C=C(C)[C@H]1Cc2c(ccc3c2O[C@@H]2COc4cc(OC)c(OC)cc4[C@@H]2C3=O)O1 [Rotenone]	–	HFSCs became activated	increase in lactate pool levels	more complete hair regrowth across the entire backskin	increase in lactate levels as well as several other glycolytic intermediates	advancement of the hair cycle	new pigmentation
Antimycin A	–	HFSCs became activated	increase in lactate pool levels	more complete hair regrowth across the entire backskin	increase in lactate levels as well as several other glycolytic intermediates	advancement of the hair cycle	new pigmentation
